This experiment concerns the target T1, MC4R (Homo sapiens, UniProt P32245).
T1 construct: expressed in transfected cells; host or cells: HEK (Human Embryonic Kidney) permanent expression cell line HEK MC4R-Luc, co-expressing CRE-luciferase
In words: MCR agonistic activity (luciferase assay / cAMP accumulation assay) on MC4R. The experiment is classed as cell-based. To be noted: HEK cell lines expressing MC4R; method A (CRE-luciferase) or B (cAMP accumulation), not said which; read-out: EC50 value, agonistic activity to MC4R (range per group of Examples). In a few lines: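 HEK cells stably expressing MC4R with a CRE-luciferase reporter treated 5 hours at 37 °C with serially diluted agonist (≤1% DMSO); luminescence expressed relative to 10 nM NDP-MSH, EC50 at half-maximal signal. Alternatively, cAMP measured after 30 minutes with compound plus 500 μM IBMX by [3H]-cAMP competition binding.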

SMILES strings stand for the structures.

T1 sequence (P32245 whole entry, species assumed): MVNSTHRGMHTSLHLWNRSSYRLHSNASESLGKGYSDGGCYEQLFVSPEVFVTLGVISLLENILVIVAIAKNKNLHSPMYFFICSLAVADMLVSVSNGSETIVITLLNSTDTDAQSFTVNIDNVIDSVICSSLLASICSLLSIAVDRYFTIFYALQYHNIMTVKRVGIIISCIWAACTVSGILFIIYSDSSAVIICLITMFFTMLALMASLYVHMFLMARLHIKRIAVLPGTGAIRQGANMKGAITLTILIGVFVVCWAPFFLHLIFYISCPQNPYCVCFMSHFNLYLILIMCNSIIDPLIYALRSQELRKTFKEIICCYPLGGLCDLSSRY

As for `CC(=O)N([C@H]1C[C@H](C(=O)N2CCN(C)CC2)N(C(=O)[C@@H]2CN(C(C)C)C[C@H]2c2ccc(Cl)cc2)C1)[C@H]1CC[C@@H](C)CC1` [Example 62, N-{(3S,5R)-1-{[(3S,4R)-4-(4-chlorophenyl)-1-isopropylpyrrolidin-3-yl]carbonyl}-5-[(4-methylpiperazin-1-yl)carbonyl]pyrrolidin-3-yl}-N-(cis-4-methylcyclohexyl)acetamide], the EC50 (in general, the midpoint of the concentration-response curve) is 0.01 to 0.1 µM.

For the compound `Cc1ccc(N2C[C@@H](C(=O)N3C[C@@H](N(C(=O)C(C)(C)C)C4CCC(C)(C)CC4)C[C@H]3C(=O)N3CCN(C)CC3)[C@H](c3ccc(Cl)cc3)C2)nn1` [Example 63, N-{(3S,5S)-1-{[(3S,4R)-4-(4-chlorophenyl)-1-(6-methylpyridazine-3-yl)pyrrolidin-3-yl]carbonyl}-5-[(4-methylpiperazin-1-yl)carbonyl]pyrrolidin-3-yl}-N-(4,4-dimethylcyclohexyl)-2,2-dimethylpropanamide], the EC50 is 0.01 to 0.1 µM.

For the compound `CN1CCN(C(=O)[C@@H]2C[C@H](N(C(=O)C(C)(C)C)C3CCC(C)(C)CC3)CN2C(=O)[C@@H]2CN(c3ccccn3)C[C@H]2c2ccc(Cl)cc2)CC1` [Example 64, N-{(3S,5S)-1-{[(3S,4R)-4-(4-chlorophenyl)-1-pyridine-2-ylpyrrolidin-3-yl]carbonyl}-5-[(4-methylpiperazin-1-yl)carbonyl]pyrrolidin-3-yl}-N-(4,4-dimethylcyclohexyl)-2,2-dimethylpropanamide], the EC50 is 0.01 to 0.1 µM.

Regarding `CN1CCN(C(=O)[C@@H]2C[C@H](N(C(=O)[C@@H]3CCCO3)C3CCC(C)(C)CC3)CN2C(=O)[C@@H]2CN(c3ccccn3)C[C@H]2c2ccc(Cl)cc2)CC1` [Example 65, (2S)-N-{(3S,5S)-1-{[(3S,4R)-4-(4-chlorophenyl)-1-pyridine-2-ylpyrrolidin-3-yl]carbonyl}-5-[(4-methylpiperazin-1-yl)carbonyl]pyrrolidin-3-yl}-N-(4,4-dimethylcyclohexyl)tetrahydrofuran-2-carboxamide], the EC50 is 0.0001 to 0.01 µM.

For the compound `CC1CCC(N(C(=O)C2CCCO2)C2CC(C(=O)N3CCN(C)CC3)N(C(=O)C3CN(c4cccnn4)CC3c3ccc(F)cc3F)C2)CC1` (centres unmarked) [Example 66], the EC50 lay in the range of 0.0001 to 0.01 µM.

As for `CN1CCN(C(=O)[C@@H]2C[C@H](N(C(=O)C(C)(C)C)C3CCC(C)(C)CC3)CN2C(=O)[C@@H]2CN(c3ncccn3)C[C@H]2c2ccc(Cl)cc2)CC1` [Example 67, N-{(3S,5S)-1-{[(3S,4R)-4-(4-chlorophenyl)-1-pyrimidine-2-ylpyrrolidin-3-yl]carbonyl}-5-[(4-methylpiperazin-1-yl)carbonyl]pyrrolidin-3-yl}-N-(4,4-dimethylcyclohexyl)-2,2-dimethylpropanamide], the concentration giving a half-maximal response (EC50) lay in the range of 1 to 10 µM.

In the case of `CN1CCN(C(=O)[C@@H]2C[C@H](N(C(=O)[C@@H]3CCCO3)[C@H]3CC[C@@H](C)CC3)CN2C(=O)[C@@H]2CN(c3ccccn3)C[C@H]2c2ccc(F)cc2F)CC1` [Example 68, (2S)-N-{(3S,5S)-1-{[(3S,4R)-4-(2,4-difluorophenyl)-1-pyridine-2-ylpyrrolidin-3-yl]carbonyl}-5-[(4-methylpiperazin-1-yl)carbonyl]pyrrolidin-3-yl}-N-(cis-4-methylcyclohexyl)tetrahydrofuran-2-carboxamide], the EC50 fell in the range of 0.0001 to 0.01 µM.

Take `CN1CCN(C(=O)[C@@H]2C[C@H](N(C(=O)[C@@H]3CCCO3)[C@H]3CC[C@@H](C)CC3)CN2C(=O)[C@@H]2CN(c3ccc(C#N)cn3)C[C@H]2c2ccc(Cl)cc2)CC1` [Example 69, (2S)-N-{(3S,5S)-1-{[(3S,4R)-4-(4-chlorophenyl)-1-(5-cyanopyridine-2-yl)pyrrolidin-3-yl]carbonyl}-5-[(4-methylpiperazin-1-yl)carbonyl]pyrrolidin-3-yl}-N-(cis-4-methylcyclohexyl)tetrahydrofuran-2-carboxamide]: the EC50 fell in the range of 0.0001 to 0.01 µM.

For `CN1CCN(C(=O)[C@@H]2C[C@H](N(C(=O)C(C)(C)C)C3CCC(C)(C)CC3)CN2C(=O)[C@@H]2CN(c3nccs3)C[C@H]2c2ccc(Cl)cc2)CC1` [Example 70, N-{(3S,5S)-1-{[(3S,4R)-4-(4-chlorophenyl)-1-(1,3-thiazole-2-yl)pyrrolidin-3-yl]carbonyl}-5-[(4-methylpiperazin-1-yl)carbonyl]pyrrolidin-3-yl}-N-(4,4-dimethylcyclohexyl)-2,2-dimethylpropanamide], the EC50 lay in the range of 0.1 to 1 µM.

In the case of `Cc1ccccc1N1C[C@@H](C(=O)N2C[C@@H](N(C(=O)[C@@H]3CCCO3)[C@H]3CC[C@@H](C)CC3)C[C@H]2C(=O)N2CCN(C)CC2)[C@H](c2ccc(Cl)cc2)C1` [Example 71, (2S)-N-{(3S,5S)-1-{[(3S,4R)-4-(4-chlorophenyl)-1-(2-methylphenyl)pyrrolidin-3-yl]carbonyl}-5-[(4-methylpiperazin-1-yl)carbonyl]pyrrolidin-3-yl}-N-(cis-4-methylcyclohexyl)tetrahydrofuran-2-carboxamide], the EC50 is 1 to 10 µM.

Take `CN1CCN(C(=O)[C@@H]2C[C@H](N(C(=O)[C@@H]3CCCO3)[C@H]3CC[C@@H](C)CC3)CN2C(=O)[C@@H]2CN(c3ccc(=O)n(C)n3)C[C@H]2c2ccc(Cl)cc2)CC1` [Example 72, (2S)-N-{(3S,5S)-1-{[(3S,4R)-4-(4-chlorophenyl)-1-(1-methyl-6-oxo-1,6-dihydropyridazine-3-yl)pyrrolidin-3-yl]carbonyl}-5-[(4-methylpiperazin-1-yl)carbonyl]pyrrolidin-3-yl}-N-(cis-4-methylcyclohexyl)tetrahydrofuran-2-carboxamide]: the EC50 was in the range of 0.0001 to 0.01 µM.

For the compound `CN1CCN(C(=O)[C@@H]2C[C@H](N(C(=O)[C@@H]3CCCO3)[C@H]3CC[C@@H](C)CC3)CN2C(=O)[C@@H]2CN(c3ccc(=O)[nH]n3)C[C@H]2c2ccc(Cl)cc2)CC1` [Example 73, (2S)-N-{(3S,5S)-1-{[(3S,4R)-4-(4-chlorophenyl)-1-(6-oxo-1,6-dihydropyridazine-3-yl)pyrrolidin-3-yl]carbonyl]-5-[(4-methylpiperazin-1-yl)carbonyl]pyrrolidin-3-yl}-N-(cis-4-methylcyclohexyl)tetrahydrofuran-2-carboxamide], the EC50 was in the range of 0.0001 to 0.01 µM.

As to `CN1CCN(C(=O)[C@@H]2C[C@H](N(C(=O)[C@@H]3CCCO3)[C@H]3CC[C@@H](C)CC3)CN2C(=O)[C@H]2CN(C(C)(C)C)C[C@H]2c2ccc(Cl)cc2)CC1` [Example 74, (2S)-N-{(3S,5S)-1-{[(3R,4R)-1-tert-butyl-4-(4-chlorophenyl)pyrrolidin-3-yl]carbonyl}-5-[(4-methylpiperazin-1-yl)carbonyl]pyrrolidin-3-yl}-N-(cis-4-methylcyclohexyl)tetrahydrofuran-2-carboxamide], the EC50 was 0.01 to 0.1 µM.

For the compound `CN1CCN(C(=O)[C@@H]2C[C@H](N(C(=O)[C@@H]3CCCO3)[C@H]3CC[C@@H](C)CC3)CN2C(=O)[C@@H]2CN(C(C)(C)C)C[C@@H]2c2ccc(Cl)cc2)CC1` [Example 75, (2S)-N-{(3S,5S)-1-{[(3S,4S)-1-tert-butyl-4-(4-chlorophenyl)pyrrolidin-3-yl]carbonyl}-5-[(4-methylpiperazin-1-yl)carbonyl]pyrrolidin-3-yl}-N-(cis-4-methylcyclohexyl)tetrahydrofuran-2-carboxamide], the EC50 is 1 to 10 µM.

(Values after patent publication US8183243B2, “Melanocortin receptor agonists” (LG Life Sciences Ltd., priority 2008, dated 2012).)
